Measurements from patent publication US20030068802A1, “Use of streptococcus pneumoniae acyl carrier protein synthase crystal structure in diagnostics, antimicrobial drug design, and biosensors” (priority 2000, published 2003).

Assays:
[1] = biological target: T1, purified AcpS of S. pneumoniae (Streptococcus pneumoniae, UniProt P0A2W7); experiment: HPLC-based AcpS enzyme assay (conversion of apo-ACP to holo-ACP); assay type: biochemical; details: for relative activity as substrate of AcpS: CoA = 100, 1.5 μM apo-ACP, 20 μM CoA or CoA derivative, 19 nM AcpS; for Ki: 3.7 nM AcpS
T1 construct: made in house; host or cells: E. coli BL21 (pLysS)/pRBP-19 (pET-11a)
T1 sequence (P0A2W7 1-120): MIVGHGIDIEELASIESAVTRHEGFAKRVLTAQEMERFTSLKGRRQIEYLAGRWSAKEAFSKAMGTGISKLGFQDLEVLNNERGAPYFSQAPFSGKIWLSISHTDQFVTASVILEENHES
Description: (§1) Unless otherwise indicated, reaction mixtures contain 50 mM Tris-HCl, pH 7.0, 10 mM MgCl2, 2.5-50 μM CoA, 0.25-6.0 μM purified apo-ACP of S. pneumoniae, and 3.7 nM purified AcpS of S. pneumoniae, and are incubated at 37° C. for 9 min. Reactions are stopped by the addition of 50 mM EDTA. The formation of holo-ACP is determined by an HPLC or a trichloroacetic acid (TCA) precipitation method (see below). An HPLC-based assay is adapted from the method described previously (Lambalot and Walsh, 1997). This assay monitors the conversion of apo-ACP to holo-ACP. Reaction mixtures (100 μl each) are injected into an analytical HPLC column (Vydac protein C4 reverse-phase; P. J. Cobert Associates, Inc., St. Louis, Mo.) equilibrated with 45% acetonitrile in 0.1% trifluoroacetic acid. The column is eluted with an 8 ml linear gradient of 45-80% acetonitrile. The column elution profiles are monitored at 220 nm. Under these conditions, holo-ACP migrates faster than apo-ACP. The amount of holo-ACP formed is estimated by comparing the peak area of the holo-ACP formed with those of both apo- and holo-ACP.
(§2) To examine the substrate specificity of AcpS, a variety of CoA derivatives (acetyl-CoA, malonyl-CoA, acetoacetyl-CoA, desulfo-CoA, and dephospho-CoA) are tested. All reaction mixtures contain 1.5 μM apo-ACP, 20 μM CoA or CoA derivative, and 19 nM AcpS, and the formation of holo-ACP is determined by the HPLC method.
For the determination of Km and Vmax (kcat) of AcpS for apo-ACP, reaction mixtures (in quadruplicate) contain 20 μM CoA, 0.25 to 100 μM apo-ACP, and 3.7 nM. AcpS. The formation of holo-ACP is measured by the HPLC method or the TCA precipitation method. To determine Km for CoA, the reaction conditions are the same as those described above except that the concentration of apo-ACP is 2.0 μM, and the concentrations of CoA were 5 to 600 μM. […]
To evaluate the inhibition of AcpS activity by 3′,5′-ADP with respect to CoA, reaction mixtures contain 1-60 μM 3′,5′-ADP, 2.5-60 μM CoA, 1.0 μM apo-ACP, and 3.7 nM AcpS. To evaluate the inhibition of AcpS activity by 3′,5′-ADP with respect to apo-ACP, reaction mixtures contain 1-60 μM 3′,5′-ADP, 0.5-6.0 μM apo-ACP, 20 μM CoA, and 3.7 nM AcpS. The formation of holo-ACP is analyzed by the HPLC method.

[2] = biological target: T1, purified AcpS of S. pneumoniae; experiment: Substrate binding to AcpS by gel filtration column chromatography, mass spectrometry and filter binding; details: 27 μM AcpS, 10 mM MgCl2, 100 μM apo-ACP or 50 μM CoA, room temperature 30 min
Description: To determine whether AcpS binds directly to apo-ACP or CoA in the absence of the other substrate, a purified AcpS preparation (27 μM) is first mixed with 10 mM MgCl2, and then either 100 μM apo-ACP or 50 μM CoA. The mixture is incubated at room temperature for 30 min and subjected to gel filtration column chromatography (S-75 Superdex) under the conditions described above. The fractions containing the AcpS-apo-ACP complex and unbound apo-ACP are analyzed by SDS-PAGE (16% tricine gels), SYPRO Orange staining, and mass spectrometry.
The order of substrate binding to AcpS can be analyzed by determining the binding of CoA and apo-ACP to purified AcpS by gel filtration column chromatography, mass spectrometry, or filter binding assays. If CoA binds to AcpS first and forms an enzyme-substrate complex that is required for the next reaction with apo-ACP, then a stable enzyme-substrate complex should be detectable. […]
Whether apo-ACP binds to AcpS in the absence of CoA, a mixture of AcpS and apo-ACP (apo-ACP/AcpS=5:1) can be subjected to gel filtration column chromatography and analysis of the column fractions by SDS-PAGE. […] Consistent with the formation of the AcpS-apo-ACP complex, the presence of apo-ACP is also detected in the fractions containing purified AcpS (FIG. 2B). […]

[3] = biological target: Streptococcus pneumoniae apo-acyl carrier protein (apo-ACP)
[4] = substrate: CC(C)(COP(=O)(O)OP(=O)(O)OC[C@H]1O[C@@H](n2cnc3c(N)ncnc32)[C@H](O)[C@@H]1OP(=O)(O)O)[C@@H](O)C(=O)NCCC(=O)NCCS; experiment: HPLC-based AcpS enzyme assay (conversion of apo-ACP to holo-ACP); assay type: biochemical, Streptococcus pneumoniae; details: other: fixed apo-ACP 2 μM, various CoA, HPLC method; pH 7.0; 37.0 °C
Description: as §1, with “The amount of holo-ACP formed is estimated by comparing the peak area of the holo-ACP formed with those of both apo- and holo-ACP.” left out
as §2, with “method. […]” for “method.”

[5] = substrate: CC(C)(COP(=O)(O)OP(=O)(O)OC[C@H]1O[C@@H](n2cnc3c(N)ncnc32)[C@H](O)[C@@H]1OP(=O)(O)O)[C@@H](O)C(=O)NCCC(=O)NCCS; experiment: TCA precipitation AcpS assay ([3H]CoA incorporation into apo-ACP); assay type: biochemical, Streptococcus pneumoniae; details: other: TCA precipitation method
Description: AcpS activity is also assayed by using a TCA precipitation method (Lambalot and Walsh, 1995). This method measures the incorporation of the 3H-labeled 4′-phospho-pantotheine group from [^3H]CoA into apo-ACP. Reaction conditions are the same as those described for the HPLC assay, except that [^3H]COA (specific activity, 1.5 Ci/mmol, NEN Life Science Products, Boston, Mass.) is used alone or in combination with CoA. Reactions are stopped by the addition of 0.9 ml of cold 10% TCA followed by 37 μg of bovine serum albumin (BSA). Precipitated protein is collected by centrifugation (a microfuge at 14,000 rpm) for 5 min and washed twice with ice-cold 10% TCA. The protein collected is resuspended in 150 μl of 1M Tris base and 0.1% Triton X-100. The resulting suspension (100 μl) is mixed with 2.5 ml of Ready Protein+scintillation fluid (Beckman, Fullerton, Calif.), and counted using an LS 60001C scintillation counter (Beckman).
For the determination of Km and Vmax (kcat) of AcpS for apo-ACP, reaction mixtures (in quadruplicate) contain 20 μM CoA, 0.25 to 100 μM apo-ACP, and 3.7 nM. AcpS. The formation of holo-ACP is measured by the HPLC method or the TCA precipitation method. To determine Km for CoA, the reaction conditions are the same as those described above except that the concentration of apo-ACP is 2.0 μM, and the concentrations of CoA were 5 to 600 μM.

## CC(C)(COP(=O)(O)OP(=O)(O)OC[C@H]1O[C@@H](n2cnc3c(N)ncnc32)[C@H](O)[C@@H]1OP(=O)(O)O)[C@@H](O)C(=O)NCCC(=O)NCCS [CoA, Coenzyme A]
[1]
  relative activity as substrate of AcpS: 100
[2]
  binding to AcpS in the absence of the other substrate: does not appear to bind

## Nc1ncnc2c1ncn2[C@@H]1O[C@H](COP(=O)(O)O)[C@@H](OP(=O)(O)O)[C@H]1O [3′,5′-ADP, 3′,5′-adenosine diphosphate]
[1]; inhibition of AcpS activity with respect to CoA, various CoA concentrations, fixed apo-ACP 1.0 μM, Dixon plot FIG. 7C
  Ki: 6 µM
[1]; inhibition of AcpS activity with respect to apo-ACP, various apo-ACP concentrations, fixed CoA 20 μM, Dixon plot FIG. 7D
  Ki: 2.5 µM
[1]; various CoA, fixed apo-ACP
  pattern of inhibition with respect to CoA (double reciprocal plots): simple competitive pattern
[1]; various apo-ACP, fixed CoA
  pattern of inhibition with respect to apo-ACP (double reciprocal plots): linear-mixed pattern

## CC(=O)SCCNC(=O)CCNC(=O)[C@H](O)C(C)(C)COP(=O)(O)OP(=O)(O)OC[C@H]1O[C@@H](n2cnc3c(N)ncnc32)[C@H](O)[C@@H]1OP(=O)(O)O [acetyl-CoA]
[1]
  relative activity as substrate of AcpS: 91

## CC(=O)CC(=O)SCCNC(=O)CCNC(=O)[C@H](O)C(C)(C)COP(=O)(O)OP(=O)(O)OC[C@H]1O[C@@H](n2cnc3c(N)ncnc32)[C@H](O)[C@@H]1OP(=O)(O)O [acetoacetyl-CoA]
[1]
  relative activity as substrate of AcpS: 65

## CC(C)(COP(=O)(O)OP(=O)(O)OC[C@H]1O[C@@H](n2cnc3c(N)ncnc32)[C@H](O)[C@@H]1O)[C@@H](O)C(=O)NCCC(=O)NCCS [dephospho-CoA]
[1]
  relative activity as substrate of AcpS: 0

## CCNC(=O)CCNC(=O)[C@H](O)C(C)(C)COP(=O)(O)OP(=O)(O)OC[C@H]1O[C@@H](n2cnc3c(N)ncnc32)[C@H](O)[C@@H]1OP(=O)(O)O [desulfo-CoA]
[1]
  relative activity as substrate of AcpS: 76

## CC(C)(COP(=O)(O)OP(=O)(O)OC[C@H]1O[C@@H](n2cnc3c(N)ncnc32)[C@H](O)[C@@H]1OP(=O)(O)O)[C@@H](O)C(=O)NCCC(=O)NCCSC(=O)CC(=O)O [malonyl-CoA]
[1]
  relative activity as substrate of AcpS: 12

B1: purified AcpS of S. pneumoniae (Streptococcus pneumoniae R6) (protein)
chain: T1 sequence (P0A2W7 1-120)
notes: made in house; host or cells: E. coli BL21 (pLysS)/pRBP-19 (pET-11a)
[3]
  Km (for apo-ACP), HPLC assay of holo-ACP formation, high apo-ACP concentrations: 109 ± 6.8 µM
  Km (for apo-ACP), HPLC assay of holo-ACP formation, low apo-ACP concentrations: 0.5 µM
  apparent Km for apo-ACP, TCA precipitation assay with [3H]CoA: 1.3 µM
  fold decrease of affinity (Km) at high versus low apo-ACP concentrations: approximately 200-fold
[4]
  Km: 11.5 ± 0.9 µM
[5]
  Km: 7.1 ± 0.4 µM
